Reference: US11596639B2, “Substituted indole Mcl-1 inhibitors” (Vanderbilt University, priority 2016, dated 2023)
Read-outs that look alike come from different tables or passages of the source.

Experiments:
[1] = system: H929 human cancer cell lines; test: Cellular viability / proliferation (Cell TiterGlo, 72 h); type: cell-based
In short: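 Top dose 50 μM, serially diluted 2-fold, applied one day after seeding (1,000 cells/well, 10% FBS), DMSO below 1%.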

[2] = biological target: Mcl-1 (Homo sapiens (Human), UniProt Q07820); test: Fluorescence polarization anisotropy (FPA) competition assay, FITC-Bak or FITC-Bim BH3 peptide; type: binding; settings: read-out: Ki for Inhibition of Mcl-1 by FPA assay
[3] = Homo sapiens, NCI-H929, 72 h, read-out: GI50 on cellular proliferation of H929 human cancer cell lines, H929 cells, 72 h, Cell TiterGlo, 10% FBS

Chain of Mcl-1 (Q07820 172-327): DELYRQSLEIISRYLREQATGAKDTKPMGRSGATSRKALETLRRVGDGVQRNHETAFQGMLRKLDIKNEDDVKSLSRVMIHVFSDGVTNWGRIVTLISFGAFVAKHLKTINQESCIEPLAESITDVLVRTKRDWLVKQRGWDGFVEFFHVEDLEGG

SMILES	GI50 [1, 3] [nM]	Ki [2] [nM]	GI50 ([1]; read-out: GI50 on cellular proliferation of H929 human cancer cell lines, H929 cells, 72 h, Cell TiterGlo, 10% FBS) [nM]	GI50 ([1]; H929 cells, 72 h, Cell TiterGlo, 10% FBS, read-out: GI50 on cellular proliferation of H929 human cancer cell lines) [nM]
Cc1nnc(Cn2c(C(=O)O)cc3cccc(N4C[C@@H](C)n5c(c(CCCOc6cc(C)c(Cl)c(C)c6)c6ccc(Cl)c(-c7c(C)nn(C)c7C)c65)C4=O)c32)o1 [Example 315, 7-[(4R)-7-chloro-10-[3-(4-chloro-3,5-dimethyl-phenoxy)propyl]-4-methyl-1-oxo-6-(1,3,5-trimethylpyrazol-4-yl)-3,4-dihydropyrazino[1,2-a]indol-2-yl]-1-[(5-methyl-1,3,4-oxadiazol-2-yl)methyl]indole-2-carboxylic acid]	2800	< 1		
Cc1cc(OCCCc2c3n(c4c(-c5c(C)nn(C)c5C)c(Cl)ccc24)[C@H](C)CN(c2cn(C)c4ccc(-c5cccnn5)cc24)C3=O)cc(C)c1Cl [Example 424, (R)-7-Chloro-10-(3-(4-chloro-3,5-dimethylphenoxy)propyl)-4-methyl-2-(1-methyl-5-(pyridazin-3-yl)-1H-indol-3-yl)-6-(1,3,5-trimethyl-1H-pyrazol-4-yl)-3,4-dihydropyrazino[1,2-a]indol-1(2H)-one]	1300	2.6		
Cc1cc(OCCCc2c3n(c4c(-c5c(C)nn(C)c5C)c(Cl)ccc24)[C@H](C)CN(c2cccc4nn(C)c(C(=O)O)c24)C3=O)cc(C)c1Cl [Example 133, 4-[(4R)-7-chloro-10-[3-(4-chloro-3,5-dimethyl-phenoxy)propyl]-4-methyl-1-oxo-6-(1,3,5-trimethylpyrazol-4-yl)-3,4-dihydropyrazino[1,2-a]indol-2-yl]-2-methyl-indazole-3-carboxylic acid]		< 1	1400	
Cc1cc(OCCCc2c3n(c4c(-c5c(C)nn(C)c5C)c(Cl)ccc24)[C@H](C)CN(c2cccc4c(C(=O)O)cn(Cc5ccccn5)c24)C3=O)cc(C)c1Cl [Example 468, (R)-7-(7-Chloro-10-(3-(4-chloro-3,5-dimethylphenoxy)propyl)-4-methyl-1-oxo-6-(1,3,5-trimethyl-1H-pyrazol-4-yl)-3,4-dihydropyrazino[1,2-a]indol-2(1H)-yl)-1-(pyridin-2-ylmethyl)-1H-indole-3-carboxylic acid]	260	< 1		
Cc1cc(OCCCc2c3n(c4c(-c5c(C)nn(C)c5C)c(Cl)ccc24)[C@H](C)CN(c2cccc4cccc(C(=O)O)c24)C3=O)cc(C)c1Cl [Example 191, (R)-8-(7-Chloro-10-(3-(4-chloro-3,5-dimethylphenoxy)propyl)-4-methyl-1-oxo-6-(1,3,5-trimethyl-1H-pyrazol-4-yl)-3,4-dihydropyrazino[1,2-a]indol-2(1H)-yl)-1-naphthoic acid]	3200	< 1		
Cc1cc(OCCCc2c3n(c4c(-c5c(C)nn(C)c5C)c(Cl)ccc24)[C@H](C)CN(c2cccc4ccc(C(=O)O)cc24)C3=O)cc(C)c1Cl [Example 368, (P, R)-8-(7-Chloro-10-(3-(4-chloro-3,5-dimethylphenoxy)propyl)-4-methyl-1-oxo-6-(1,3,5-trimethyl-1H-pyrazol-4-yl)-3,4-dihydropyrazino[1,2-a]indol-2(1H)-yl)-2-naphthoic acid]		1.4		620
Cc1cc(N2C[C@@H](C)n3c(c(CCCOc4cc(C)c(Cl)c(C)c4)c4ccc(Cl)c(-c5c(C)nn(CC6CCOCC6)c5C)c43)C2=O)c2c(c1)cc(C(=O)O)n2C [Example 452, (R)-7-(7-Chloro-10-(3-(4-chloro-3,5-dimethylphenoxy)propyl)-6-(3,5-dimethyl-1-((tetrahydro-2H-pyran-4-yl)methyl)-1H-pyrazol-4-yl) 4-methyl-1-oxo-3,4-dihydropyrazino[1,2-a]indol-2(1H)-yl)-1,5-dimethyl-1H-indole-2-carboxylic acid]	380	2.2		
Cc1cc(OCCCc2c3n(c4c(-c5c(C)nn(C)c5C)c(Cl)ccc24)[C@H](C)[C@@H](C)N(c2cccc(C(=O)O)c2)C3=O)cc(C)c1Cl [Example 141, 3-((3R,4R)-7-chloro-10-(3-(4-chloro-3,5-dimethylphenoxy)propyl)-3,4-dimethyl-1-oxo-6-(1,3,5-trimethyl-1H-pyrazol-4-yl)-3,4-dihydropyrazino[1,2-a]indol-2(1H)-yl)benzoic acid]	9500	4.5		
